Laboratory results published in patent US8058475B2, “Substituted cyclohexylmethyl compounds” (Gruenenthal GmbH, priority 2005, dated 2011).
Structures can show the parent of a compound that is named as a salt. Where two headings read alike, the source gives them in different places.

Columns and labels:
human μ-opiate receptor = human μ-opiate receptor (Homo sapiens, UniProt P35372); test: Affinity for the human μ-opiate receptor ([3H]-naloxone displacement, SPA, CHO-K1 membrane preparation); format: binding; conditions: for inhibition at 1 µM: read-out: μ-Opioid receptor, % inhibition [1 μM]; for Ki: read-out: μ-Opioid receptor, Ki
Sequence of human μ-opiate receptor (P35372 whole entry): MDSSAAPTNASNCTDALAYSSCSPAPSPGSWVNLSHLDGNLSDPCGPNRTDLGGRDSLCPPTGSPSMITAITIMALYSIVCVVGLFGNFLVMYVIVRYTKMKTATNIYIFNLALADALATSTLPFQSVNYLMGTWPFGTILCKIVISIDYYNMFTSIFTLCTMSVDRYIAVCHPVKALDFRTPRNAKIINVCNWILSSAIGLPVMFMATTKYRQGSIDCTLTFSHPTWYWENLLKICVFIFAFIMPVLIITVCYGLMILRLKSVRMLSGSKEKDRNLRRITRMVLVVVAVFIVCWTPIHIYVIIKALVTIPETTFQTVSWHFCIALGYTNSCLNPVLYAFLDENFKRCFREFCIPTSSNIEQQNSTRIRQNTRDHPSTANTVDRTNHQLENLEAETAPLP

[1] = biological target: T1, Noradrenaline (NA) reuptake (Rattus norvegicus, UniProt Q63380); test: Noradrenaline (NA) reuptake inhibition in rat brain synaptosomes (hypothalamus, P2 fraction); format: biochemical
T1 construct: synaptosomes are freshly isolated from areas of rat brain; from tissue; host or cells: rat hypothalamus synaptosomes (P2 fraction)
T1 sequence (Q63380 1-617): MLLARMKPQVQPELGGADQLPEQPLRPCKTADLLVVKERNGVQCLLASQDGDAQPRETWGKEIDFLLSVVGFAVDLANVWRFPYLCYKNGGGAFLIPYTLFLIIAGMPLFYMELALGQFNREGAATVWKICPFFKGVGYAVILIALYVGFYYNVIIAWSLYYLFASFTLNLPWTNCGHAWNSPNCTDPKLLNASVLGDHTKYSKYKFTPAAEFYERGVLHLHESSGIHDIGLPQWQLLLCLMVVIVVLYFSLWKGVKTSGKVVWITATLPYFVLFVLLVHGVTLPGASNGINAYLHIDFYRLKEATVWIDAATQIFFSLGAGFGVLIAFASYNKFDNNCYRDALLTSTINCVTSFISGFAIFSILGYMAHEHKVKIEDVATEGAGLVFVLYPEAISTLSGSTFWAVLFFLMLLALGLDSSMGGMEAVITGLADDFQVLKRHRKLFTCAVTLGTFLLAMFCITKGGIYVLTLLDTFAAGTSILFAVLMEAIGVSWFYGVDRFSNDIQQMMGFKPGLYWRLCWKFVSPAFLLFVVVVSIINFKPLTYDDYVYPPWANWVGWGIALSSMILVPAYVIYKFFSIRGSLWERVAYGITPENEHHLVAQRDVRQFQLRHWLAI
From the text: (§1) Noradrenaline (NA) and Serotonin (5HT) Reuptake Inhibition
(§2) In order to be able to carry out these studies in vitro, synaptosomes are freshly isolated from areas of rat brain. A so-called “P2” fraction prepared by the method of Gray and Whittaker (E. G. Gray and V. P. Whittaker (1962) J. Anat. 76, 79-88) is used in each case. For the NA uptake, these vesicular particles are isolated from the hypothalamus of male rat brains.
(§3) A detailed description of the method will be found in the literature (M. Ch. Frink, H. H. Hennies, W. Englberger, M. Haurand and B. Wilffert (1996) Arzneim.-Forsch./Drug Res. 46 (III), 11, 1029-1036).

Serotonin (5HT) reuptake = biological target: T2, Serotonin (5HT) reuptake (Rattus norvegicus, UniProt P31652); test: Serotonin (5HT) reuptake inhibition in rat brain synaptosomes (P2 fraction); format: biochemical; conditions: for inhibition at 10 µM: read-out: Serotonin reuptake, % inhibition [10 μM]
T2 construct: synaptosomes are freshly isolated from areas of rat brain; from tissue; host or cells: rat brain synaptosomes (P2 fraction)
T2 sequence (P31652 whole entry): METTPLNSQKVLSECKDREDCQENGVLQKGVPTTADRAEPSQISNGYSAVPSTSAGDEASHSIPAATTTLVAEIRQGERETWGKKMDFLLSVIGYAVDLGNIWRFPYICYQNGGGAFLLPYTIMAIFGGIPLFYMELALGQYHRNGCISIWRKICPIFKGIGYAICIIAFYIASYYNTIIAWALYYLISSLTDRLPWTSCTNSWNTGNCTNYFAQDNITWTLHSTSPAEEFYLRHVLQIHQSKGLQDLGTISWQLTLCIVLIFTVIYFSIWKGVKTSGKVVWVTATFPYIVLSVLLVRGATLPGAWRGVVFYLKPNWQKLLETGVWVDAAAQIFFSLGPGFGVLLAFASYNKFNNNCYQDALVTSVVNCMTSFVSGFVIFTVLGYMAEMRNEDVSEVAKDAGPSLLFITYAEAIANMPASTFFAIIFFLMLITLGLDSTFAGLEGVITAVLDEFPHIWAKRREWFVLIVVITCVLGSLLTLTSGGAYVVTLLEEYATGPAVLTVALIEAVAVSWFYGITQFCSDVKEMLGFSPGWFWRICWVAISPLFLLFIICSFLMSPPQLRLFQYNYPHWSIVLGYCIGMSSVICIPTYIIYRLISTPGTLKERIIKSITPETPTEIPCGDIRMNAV
From the text: as §1, §2, §3

[2] = 1 μM test substance, inhibition of specific [3H]-naloxone binding
[3] = read-out: NA reuptake, % inhibition [10 μM]
[4] = read-out: Na reuptake, % inhibition [10 μM]

| SMILES | inhibition at 1 µM (human μ-opiate receptor; [2]) [%] | inhibition at 10 µM [1, 3] [%] | inhibition at 10 µM (Serotonin (5HT) reuptake) [%] | Ki (human μ-opiate receptor; [3H]-naloxone, human μ-opiate receptor membranes) [nM] | μ-Opioid receptor, % inhibition [1 μM] (human μ-opiate receptor; [2]) [%] | NA reuptake, % inhibition [10 μM] ([1]; 10 μM, rat brain synaptosomes (hypothalamus)) [%] | Serotonin reuptake, % inhibition [10 μM] (Serotonin (5HT) reuptake; 10 μM, rat brain synaptosomes) [%] | Ki (human μ-opiate receptor) [nM] | Ki [1] [nM] | Ki (Serotonin (5HT) reuptake) [nM] | inhibition at 1 µM (human μ-opiate receptor) [%] | inhibition at 10 µM [1, 4] [%] |
| --- | --- | --- | --- | --- | --- | --- | --- | --- | --- | --- | --- | --- |
| CN(C)C(c1ccc(Cl)cc1)C1CCC(CN)CC1 (stereo not shown) [compound 39, [(4-aminomethyl-cyclohexyl)-(4-chlorophenyl)-methyl]-dimethylamine] | 56 | 97 | 87 | – | – | – | – | – | – | – | – | – |
| CN(C)C(c1cccs1)C1CCC(CN)CC1 (stereo not shown) [compound 42, [(4-aminomethyl-cyclohexyl)-thiophen-2-yl-methyl]-dimethylamine] | 80 | 83 | 86 | 240 | – | – | – | – | – | – | – | – |
| CN(C)C(c1ccccc1)C1CCC(CC=O)CC1 (stereo not shown) [compound 46, [4-(Dimethylamino-phenyl-methyl)-cyclohexyl]-acetaldehyde] | 75 | 95 | 92 | – | – | – | – | – | – | – | – | – |
| CN(C)C(c1ccccc1)C1CCC(CCN)CC1 (stereo not shown) [compound 48] | – | – | – | – | 67 | 100 | 95 | – | – | – | – | – |
| CN(C)C(c1ccc(F)cc1)C1CCC(CC=O)CC1 (stereo not shown) [compound 49, {4-[Dimethylamino-(4-fluorophenyl)-methyl]-cyclohexyl}-acetaldehyde] | 34 | 97 | 93 | – | – | – | – | – | – | – | – | – |
| CN(C)C(c1cccc(F)c1)C1CCC(CCN)CC1 (stereo not shown) [compound 54, 2-{4-[dimethylamino-(3-fluorophenyl)-methyl]-cyclohexyl}-ethylamine] | 62 | 102 | 94 | – | – | – | – | – | – | – | – | – |
| CN(C)C(c1ccc(Cl)cc1)C1CCC(CCN)CC1 (stereo not shown) [compound 66, 2-{4-[dimethylamino-(4-chlorophenyl)-methyl]-cyclohexyl}-ethylamine] | 62 | 96 | 96 | – | – | – | – | – | – | – | – | – |
| CN(C)C(c1cccs1)C1CCC(CC=O)CC1 (stereo not shown) [compound 67, {4-[Dimethylamino-thiophen-2-yl-methyl]-cyclohexyl}-acetaldehyde] | – | 86 | 95 | – | – | – | – | 200 | – | – | – | – |
| CN(C)C(c1cccs1)C1CCC(CCN)CC1 (stereo not shown) [compound 69, 2-[4-(dimethylamino-thiophen-2-yl-methyl)-cyclohexyl]-ethylamine] | 61 | 98 | 83 | – | – | – | – | – | – | – | – | – |
| CN(C)C(c1ccccc1)C1CCC(NC(=O)Nc2cccc3ccccc23)CC1 (stereo not shown) [compound 73, 1-(4-((dimethylamino)(phenyl)methyl)cyclohexyl)-3-(naphthalen-1-yl)urea] | 96 | 94 | 90 | – | – | – | – | 46 | 180 | 61 | – | – |
| CN(C)C(c1ccccc1)C1CCC(NC(=O)Nc2ccc(F)cc2F)CC1 (stereo not shown) [compound 74, 1-(2,4-difluorophenyl)-3-(4-((dimethylamino)(phenyl)methyl)cyclohexyl)urea hydrochloride] | 88 | 93 | 86 | – | – | – | – | 160 | 220 | 120 | – | – |
| CN(C)C(c1ccccc1)C1CCC(NC(=O)Nc2cccc(C(F)(F)F)c2)CC1 (stereo not shown) [compound 75, 1-(4-((dimethylamino)(phenyl)methyl)cyclohexyl)-3-(3-(trifluoromethyl)-phenyl)urea hydrochloride] | 88 | 88 | 80 | – | – | – | – | 98 | 550 | 13 | – | – |
| CN(C)C(c1ccccc1)C1CCC(NC(=O)Nc2ccccc2[N+](=O)[O-])CC1 (stereo not shown) [compound 76, 1-(4-((dimethylamino)(phenyl)methyl)cyclohexyl)-3-(2-nitrophenyl)urea hydrochloride] | 61 | 100 | 84 | – | – | – | – | – | – | – | – | – |
| CN(C)C(c1ccccc1)C1CCC(NC(=O)Nc2cccc(Br)c2)CC1 (stereo not shown) [compound 77, 1-(3-bromophenyl)-3-(4-((dimethylamino)(phenyl)methyl)cyclohexyl)urea hydrochloride] | 88 | 93 | 84 | – | – | – | – | 78 | – | – | – | – |
| CN(C)C(c1ccccc1)C1CCC(NC(=O)Nc2ccc(Br)cc2)CC1 (stereo not shown) [compound 81, 1-(4-bromophenyl)-3-(4-((dimethylamino)(phenyl)methyl)cyclohexyl)urea] | 95 | 97 | 97 | – | – | – | – | 33 | – | – | – | – |
| COc1ccc(NC(=O)NC2CCC(C(c3ccccc3)N(C)C)CC2)cc1 (stereo not shown) [compound 82, 1-(4-((dimethylamino)(phenyl)methyl)cyclohexyl)-3-(4-methoxyphenyl)urea] | 92 | 98 | 98 | – | – | – | – | 190 | 120 | 110 | – | – |
| CN(C)C(c1ccccc1)C1CCC(NCCc2c[nH]c3ccccc23)CC1 (stereo not shown) [compound 83, N-(2-(1H-indol-3-yl)ethyl)-4-((dimethylamino)(phenyl)methyl)-cyclohexanamine hydrochloride] | 95 | 100 | 93 | – | – | – | – | 7 | – | – | – | – |
| CN(C)C(c1ccccc1)C1CCC(NCCc2ccccc2)CC1 (stereo not shown) [compound 84, 4-((dimethylamino)(phenyl)methyl)-N-phenethylcyclohexanamine hydrochloride] | 95 | 93 | 76 | – | – | – | – | 12 | – | – | – | – |
| CN(C)C(c1ccccc1)C1CCC(NCCCc2ccccc2)CC1 (stereo not shown) [compound 85, 4-((dimethylamino)(phenyl)methyl)-N-(3-phenylpropyl)cyclohexanamine dihydrochloride] | 98 | 103 | 77 | – | – | – | – | 2.8 | – | – | – | – |
| COc1ccc(NC2CCC(C(c3ccccc3)N(C)C)CC2)cc1 (stereo not shown) [compound 89, N-(4-((dimethylamino)(phenyl)methyl)cyclohexyl)-4-methoxybenzenamine hydrochloride] | 95 | 85 | 73 | – | – | – | – | 59 | – | – | – | – |
| COc1ccc(CNC2CCC(C(c3ccccc3)N(C)C)CC2)cc1 (stereo not shown) [compound 90, 4-((dimethylamino)(phenyl)methyl)-N-(4-methoxybenzyl)cyclohexanamine dihydrochloride] | 94 | 98 | 87 | – | – | – | – | 45 | – | – | – | – |
| CN(C)C(c1ccccc1)C1CCC(Nc2ccccc2)CC1 (stereo not shown) [compound 92, N-(4-((dimethylamino)(phenyl)methyl)cyclohexyl)benzenamine hydrochloride] | 91 | 75 | 69 | – | – | – | – | 17 | – | – | – | – |
| CCC(CC)C(=O)NC1CCC(C(c2ccccc2)N(C)C)CC1 (stereo not shown) [compound 93, N-(4-((dimethylamino)(phenyl)methyl)cyclohexyl)-2-ethylbutanamide hydrochloride] | – | – | 75 | – | – | – | – | 94 | – | 660 | 94 | 48 |
| CC(=O)N(c1ccccc1)C1CCC(C(c2ccccc2)N(C)C)CC1 (stereo not shown) [compound 96, N-(4-((dimethylamino)(phenyl)methyl)cyclohexyl)-N-phenylacetamide hydrochloride] | – | – | 83 | – | – | – | – | 86 | 800 | 660 | 99 | 88 |
| CCC(=O)N(CCCCc1ccccc1)C1CCC(C(c2ccccc2)N(C)C)CC1 (stereo not shown) [compound 97, N-(4-((dimethylamino)(phenyl)methyl)cyclohexyl)-N-(4-phenylbutyl)propionamide hydrochloride] | – | – | 76 | – | – | – | – | 3.7 | 700 | 990 | 97 | 94 |
| COc1ccc(N(C(C)=O)C2CCC(C(c3ccccc3)N(C)C)CC2)cc1 (stereo not shown) [compound 99, N-(4-((dimethylamino)(phenyl)methyl)cyclohexyl)-N-(4-methoxyphenyl)-acetamide hydrochloride] | – | – | 83 | – | – | – | – | 470 | – | 540 | 77 | 75 |
| CC(=O)N(Cc1ccccc1)C1CCC(C(c2ccccc2)N(C)C)CC1 (stereo not shown) [compound 100, N-benzyl-N-(4-((dimethylamino)(phenyl)methyl)cyclohexyl)acetamide hydrochloride] | – | – | 86 | – | – | – | – | 3.5 | 320 | 520 | 100 | 91 |
| CCC(CC)C(=O)N(Cc1ccccc1)C1CCC(C(c2ccccc2)N(C)C)CC1 (stereo not shown) [compound 101, N-benzyl-N-(4-((dimethylamino)(phenyl)methyl)cyclohexyl)-2-ethylbutanamide hydrochloride] | – | – | 81 | – | – | – | – | 2.3 | 670 | 880 | 101 | 86 |
